The target of series [1] is NR4A1 and VHL (Homo sapiens, UniProt P22736+P40337). Kind of series: Proximity ligation assay (PLA) for the NR4A1-VHL ternary complex. The format is cell-based. More on the design: endogenous in cells; host or cells: CHL-1 and A375 human melanoma cells. As to conditions: CHL-1 and A375 cells, 500 nM, 16 h, 0.5 μM MG132 pretreatment. How it is done:
5 × 10^4 CHL-1 and A375 cells were cultured in Nunc Lab-Tek Chamber Slide (177402; Thermo Fisher Scientific). The cells were treated with DMSO, 500 nM celastrol, and 500 nM NR-V04 for 16 h with MG132 inhibitor. The PLA was conducted with Duolink In Situ Red Starter Kit Mouse/Rabbit (DUO92101; Sigma-Aldrich) following the standard protocol. Additionally, a non-stain cell group was included as a negative control to account for background signal during PLA assay. The signal was detected using a confocal microscope (LSM 710; Zeiss). Primary antibody: NR4A1 (HPA059742, 2 μg/ml, isotype-rabbit; Sigma-Aldrich) and VHL (MA5-13940, 2 μg/ml, isotype-mouse; Thermo Fisher Scientific).

For series [2], the system named is Yummer1.7 melanoma. Kind of series: Yummer1.7 melanoma syngeneic tumor model. The series is classed as in vivo, mouse. The source says:
7–9-wk-old C57BL/6J, B6.129S2-Ighm^tm1Cgn/J (002288), B6.129S2-Nr4a1^tm1Jmi/J (NR4A1^−/−, 006187), and NOD-SCID interleukin-2 receptor gamma null (NSG) mice were purchased from Jackson Laboratories. For all studies involving NR-V04 and celastrol, the compounds were formulated in 50% phosal PG, 45% miglyol 810N, and 5% polysorbate 80 and administered via i.p. injection.
For syngeneic tumor models, 5 × 10^5 cells MC38, Yumm1.7, and Yummer1.7, 1 × 10^5 cells of B16F10 were resuspended in PBS and implanted into 7–9-wk-old mice subcutaneously. For the tumor inhibition experiment, mice were treated with 1.8 mg/kg NR-V04 or 0.75 mg/kg celastrol by i.p. injection twice weekly. For the immune profile experiment, once tumors reached 0.5 cm in diameter, mice were treated with 1.8 mg/kg NR-V04 by i.p. injection twice weekly. […] Blood samples were taken from the submandibular (facial) vein before each treatment and 42 days later for hematological analysis, and body weight was measured twice per week up to day 42. […]
We administered 100 μg of anti-mouse CD8α antibody (Clone: 53-6.7; Bio X Cell) or rat IgG2a isotype control to each mouse every 4 days via i.p. injection. […] Toward the end of the experiment, we collected blood samples from mice in both treatment and control groups and assessed the efficiency of CD8^+ T cell depletion using flow cytometry analysis.

Series [3] has as its target T1, NR4A1 (Mus musculus, UniProt P12813).
T1 construct: from tissue; host or cells: MC38 tumours in mice (tumour lysates)
Kind of series: NR4A1 degradation in SM1 and SW1 mouse melanoma cell lines (immunoblotting). The note with it: 16 h. The series is classed as cell-based. On the procedure: Human melanoma cell lines: A375 and CHL-1 (gifts from Dr. D. Zhou, the University of Texas Health Science Center, San Antonio, TX, USA) were cultured in Dulbecco’s Modified Eagles’ Medium (DMEM, D5796; Sigma-Aldrich), WM164 and M229 (gifts from Dr. K.S.M. Smalley’s lab) were cultured in RPMI-1640 (R8758; Sigma-Aldrich). Mouse melanoma cell lines: B16F10 (CRL-6475, ATCC) was cultured in DMEM, SW1 and SM1 (gift from Dr. K.S.M. Smalley, Moffitt Cancer Center, Tampa, FL, USA) were cultured in RPMI. Human epithelial kidney cell lines: HEK293T (293T, CRL-3216; ATCC) and Vhl-KO-293T (gift from Dr. D. Zhou, the University of Texas Health Science Center, San Antonio, TX, USA) were cultured in DMEM. Mouse colon cancer cell lines: MC38 (ENH204-FP; Kerafast Inc.) was cultured in DMEM supplemented with 1 mM glutamine, […] non-essential amino acids (11140050; Thermo Fisher Scientific), 1 mM sodium pyruvate (11360070; Thermo Fisher Scientific), and 10 mM HEPES (15630080; Thermo Fisher Scientific). […]
Samples were lysed using radioimmunoprecipitation assay buffer (RIPA) lysis buffer (150 mM NaCl, 5 mM EDTA, 50 mM Tris pH 8.0, 0.5% sodium deoxycholate, 1% NP-40, 0.1% SDS) supplemented with 1 mM dithiothreitol and protease inhibitors. The lysates were separated by SDS-PAGE and analyzed using standard western blotting procedures ([Khan et al., 2019]). […]
(In western blotting, separated proteins are transferred to a membrane and probed.)

Series [4] can be described thus: PK study in mice. The note with it: mouse. The series is classed as in vivo, C57BL/6 mice. How it is done:
The PK study of NR-V04 was done by Bioduro Inc. on three healthy male C57BL/6 mice weighing between 20 and 25 g in each group. Test compound (i.v.) was dissolved in 5% DMSO/3% tween 80 in PBS with 0.5 mEq 1N HCl and was administered (n = 3 per group) at a dose level of 2 mg/kg (concentration: 0.4 mg/ml). Test compounds (i.p.) were dissolved in 5% DMSO/3% tween 80 in PBS with 2 mEq 1N HCl (concentration […]) and were administrated at a dose level of 20 mg/kg. Plasma samples (i.v.) were collected from the orbital plexus at 0.083, 0.25, 0.5, 1.0, 2.0, 4.0, 8.0, and 24 h, and plasma samples (i.p.) were collected from the orbital plexus at 0.25, 0.50, 1.0, 2.0, 4.0, 8.0, and 24 h after dosing. The drug concentrations in the samples were quantified by LC/tandem MS. PK parameters were calculated from the mean plasma concentration by non-compartmental analysis.

The structures appear in SMILES notation.

The values below come from PMC10857906, “PROTAC-mediated NR4A1 degradation as a novel strategy for cancer immunotherapy” (The Journal of Experimental Medicine, 2024).

T1 sequence (P12813 whole entry): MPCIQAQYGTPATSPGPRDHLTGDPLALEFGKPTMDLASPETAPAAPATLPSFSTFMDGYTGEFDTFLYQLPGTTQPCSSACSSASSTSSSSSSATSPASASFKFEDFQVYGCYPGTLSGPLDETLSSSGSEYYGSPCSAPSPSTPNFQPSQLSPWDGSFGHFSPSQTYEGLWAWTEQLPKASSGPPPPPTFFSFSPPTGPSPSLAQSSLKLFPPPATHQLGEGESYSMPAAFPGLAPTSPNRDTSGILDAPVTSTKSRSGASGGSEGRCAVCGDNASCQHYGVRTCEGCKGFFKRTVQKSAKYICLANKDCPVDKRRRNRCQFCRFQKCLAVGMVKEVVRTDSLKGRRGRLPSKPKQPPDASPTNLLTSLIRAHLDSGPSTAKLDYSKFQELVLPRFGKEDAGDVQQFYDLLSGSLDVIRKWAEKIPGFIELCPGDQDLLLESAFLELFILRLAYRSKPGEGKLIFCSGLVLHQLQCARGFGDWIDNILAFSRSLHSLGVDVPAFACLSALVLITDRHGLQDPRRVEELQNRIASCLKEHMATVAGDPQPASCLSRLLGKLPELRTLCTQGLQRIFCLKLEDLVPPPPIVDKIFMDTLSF
Sequence of NR4A1 and VHL (P22736 whole entry): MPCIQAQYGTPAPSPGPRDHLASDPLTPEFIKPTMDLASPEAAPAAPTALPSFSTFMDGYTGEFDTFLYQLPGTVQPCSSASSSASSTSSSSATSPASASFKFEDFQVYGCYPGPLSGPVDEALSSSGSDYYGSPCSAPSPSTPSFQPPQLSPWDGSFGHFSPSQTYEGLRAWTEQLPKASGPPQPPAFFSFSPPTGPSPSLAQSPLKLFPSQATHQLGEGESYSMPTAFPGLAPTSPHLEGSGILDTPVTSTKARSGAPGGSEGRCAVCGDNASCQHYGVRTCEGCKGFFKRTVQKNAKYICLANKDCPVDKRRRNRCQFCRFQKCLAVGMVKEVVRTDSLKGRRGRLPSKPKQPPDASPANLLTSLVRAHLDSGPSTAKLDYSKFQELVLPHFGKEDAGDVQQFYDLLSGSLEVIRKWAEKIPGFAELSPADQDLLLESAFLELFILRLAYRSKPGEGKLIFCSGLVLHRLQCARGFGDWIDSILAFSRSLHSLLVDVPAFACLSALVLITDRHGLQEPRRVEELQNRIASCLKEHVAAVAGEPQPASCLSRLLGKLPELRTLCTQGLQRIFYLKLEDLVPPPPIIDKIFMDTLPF
Sequence of NR4A1 and VHL (P40337 whole entry): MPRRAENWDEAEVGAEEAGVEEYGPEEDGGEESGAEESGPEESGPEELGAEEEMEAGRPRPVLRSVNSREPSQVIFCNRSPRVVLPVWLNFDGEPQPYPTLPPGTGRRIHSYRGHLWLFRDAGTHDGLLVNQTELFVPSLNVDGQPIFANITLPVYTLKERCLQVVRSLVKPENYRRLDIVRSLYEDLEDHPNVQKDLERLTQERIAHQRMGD
Sequence of NR4A1 and VHL (Q15369 whole entry partner): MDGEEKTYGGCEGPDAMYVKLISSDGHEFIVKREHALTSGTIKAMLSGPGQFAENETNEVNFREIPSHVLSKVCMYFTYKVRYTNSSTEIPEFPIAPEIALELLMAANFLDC
Sequence of NR4A1 and VHL (Q15370 whole entry partner): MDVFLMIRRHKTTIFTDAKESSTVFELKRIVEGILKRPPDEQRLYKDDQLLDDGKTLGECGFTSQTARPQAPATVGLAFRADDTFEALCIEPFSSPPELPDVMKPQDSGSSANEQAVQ

One may read the clearance as a measure of how efficiently the substance is removed, as volume per time. The low end stands for a low capacity for elimination, the high end for a high capacity for elimination. In the case of `CC1=C(O)C(=O)C=C2C1=CC=C1[C@@]2(C)CC[C@@]2(C)[C@@H]3C[C@](C)(C(=O)NCCOCCOCCOCCOCC(=O)N[C@H](C(=O)N4C[C@H](O)C[C@H]4C(=O)N[C@@H](C)c4ccc(-c5scnc5C)cc4)C(C)(C)C)CC[C@]3(C)CC[C@]12C` [NR-V04], in series [1], the “PLA signals (ternary complex formation NR4A1-VHL)” value is given as “induced strong PLA signals”. Moreover, in series [2] (Yummer1.7, anti-CD8 antibody 100 µg/mouse, NR-V04 from day 7), the “tumor response with CD8^+ T cell depletion” value is “desensitized tumors to NR-V04 treatment”. The tumor growth result in series [2] (Yummer1.7 in WT mice, 1.8 mg/kg i.p. twice a week from day 7) is “effectively inhibited tumor growth”. Also, the NR4A1 protein level entry in series [3] (SM1 mouse melanoma cells) and in series [3] (SW1 mouse melanoma cells) was “reduced NR4A1 protein level” throughout. The molecule further had a clearance in series [4] (male, C57BL/6, plasma, IV 2 mg/kg) of 0.162 mL/min/kg. Besides, the “clearance rate (in words)” value in series [4] is given as “low clearance rate”.
